How the values were obtained:
[1] = target: T1, recombinant human hAAC (human αA-crystallin) (Homo sapiens, UniProt P02489); assay: Protection from Ca+2 and UVC induced aggregation of recombinant human alpha-A crystallin (absorbance / SDS-PAGE); format: biochemical; details: for Gel: SDS-PAGE, unaggregated AAC after UVC, compounds tested at 500 μM; for EC50: concentration needed to prevent 50% of hAAC from forming HMW aggregates when exposed to UVC in presence of Ca+2, calculated using SDS-PAGE, read-out: EC50 Biochemical
T1 sequence (P02489 1-173): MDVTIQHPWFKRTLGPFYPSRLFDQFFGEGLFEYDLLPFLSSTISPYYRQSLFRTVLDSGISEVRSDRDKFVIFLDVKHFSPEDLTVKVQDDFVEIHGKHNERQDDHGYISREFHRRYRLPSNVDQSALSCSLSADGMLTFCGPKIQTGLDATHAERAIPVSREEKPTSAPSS
Protocol: FIG. 2A: SDS-PAGE showing the protection against UVC induced aggregation of human α-A-crystallin (hAAC) by disulfide and related SDMs. Shown are also efficacy of non-related SDMs. The compounds were tested at 500 μM concentration.
The potency of compounds to provide protection from Ca^+2 and UVC induced aggregation of alpha-A crystalline (ACC) was measured by monitoring the effect of Ca^+2 and UVC on recombinant human hAAC. hAAC forms HMW aggregates when exposed to UVC radiation in the presence of 10 mM Ca^+2. The aggregates lead to increased absorbance. Stock compound solutions (made in DMSO) were added to recombinant hAAC (100 ug/ml) at desired concentrations. The hAAC, with the added compound, was incubated at room temperature for 1 hour, followed by addition of 10 μl of 200 mM CaCl2) and further incubation for 5 minutes. Then, absorbance was recorded at 400 nm (T=0 Minute) followed by exposure to UVC (254 nm, 480 mJ/cm^2 per minute). Absorbance was measured again at 15 and 30 minutes. To control for compound related effects, assays were performed with or without AAC in triplicate. Percent protection or change in fold-decrease in aggregation were computed using the measured differences in absorbance. DMSO was used as control. EC50 values were calculated using the SDS-PAGE, which is defined as the concentration of SMD needed to prevent 50% of hAAC from forming HMW aggregates when exposed to UVC in presence of Ca^+2 [FIGS. 2A-2B].

[2] = test system: porcine lenses; assay: Ex vivo lens culture: protection from UV-induced opacification; details: porcine lenses cultured ex vivo
From the text: To predict whether SMDs could prevent opacification in animal models and ultimately in human patients, we assessed their ability to protect intact lenses cultured ex vivo from UV-induced opacification. As fresh human lenses are difficult to obtain, porcine lenses were used for the ex vivo studies. Porcine lenses are easy to acquire (Sierra for Medical Science, Inc., Whittier, CA) and have been used previously in ex vivo models of Presbyopia. As predicted by our biochemical assays, SMDs prevents UV-induced opacification of porcine lenses ex vivo.

Row | Compound | Gel [1] | EC50 [1] [µM] | Ex-vivo [2]
1 | Cc1ccnc(N2CCSSCC2)c1[N+](=O)[O-] [Compound 35] | ++ (″++″ score = >50% unaggregated AAC) | – | –
2 | CC(=O)Nc1ccc(SSc2ccc(NC(C)=O)cc2)cc1 [Compound 16] | + (″+″ score = >20% to 50% unaggregated AAC) | – | –
3 | O=C(O)c1ccc(S(=O)(=O)N2CCCCC2)cc1 [Compound 27] | + (″+″ score = >20% to 50% unaggregated AAC) | – | –
4 | O=C(O)c1cc(S(=O)(=O)N2CCCC2)ccc1O [Compound 26] | ++ (″++″ score = >50% unaggregated AAC) | – | –
5 | O=C(O)c1cc(SSc2ccc([N+](=O)[O-])c(C(=O)O)c2)ccc1[N+](=O)[O-] [Compound 13] | ++ (″++″ score = >50% unaggregated AAC) | 191 | ++ (″++″ score = >50% unaggregated AAC)
6 | Cc1ncc(CSSCc2cnc(C)c(O)c2CO)c(CO)c1O [Compound 46] | + (″+″ score = >20% to 50% unaggregated AAC) | – | –
7 | O=C(O)CCNS(=O)(=O)c1ccc(F)cc1 [Compound 23] | + (″+″ score = >20% to 50% unaggregated AAC) | – | –
8 | O=C(O)c1cccc(S(=O)(=O)NC2CC2)c1 [Compound 25] | + (″+″ score = >20% to 50% unaggregated AAC) | – | ++ (″++″ score = >50% unaggregated AAC)
9 | CN=C(NC#N)NCCSCc1csc(N=C(C)C)n1 [Compound 32] | ++ (″++″ score = >50% unaggregated AAC) | 410 | –
10 | O=C(NCCOc1ccccc1)SSC(=O)NCCOc1ccccc1 [Compound 45] | + (″+″ score = >20% to 50% unaggregated AAC) | – | –
11 | COc1ccccc1NC(=O)CSSCC(=O)Nc1ccccc1OC [Compound 55] | ++ (″++″ score = >50% unaggregated AAC) | – | –
12 | CNC(C[N+](=O)[O-])NCCSCc1ccc(CN(C)C)o1.Cl (centres unmarked) [Compound 31] | + (″+″ score = >20% to 50% unaggregated AAC) | – | –
13 | O=[N+]([O-])c1cc(S(=O)(=O)C(F)(F)C(F)(F)F)ccc1SSc1ccc(S(=O)(=O)C(F)(F)C(F)(F)F)cc1[N+](=O)[O-] [Compound 18] | + (″+″ score = >20% to 50% unaggregated AAC) | – | –
14 | Cc1ccc(NC(=O)C(C)SSC(C)C(=O)Nc2ccc(C)c(F)c2)cc1F (centres unmarked) [Compound 41] | + (″+″ score = >20% to 50% unaggregated AAC) | – | –
15 | CCCNS(=O)(=O)c1cccc(C(C)=O)c1 [Compound 22] | + (″+″ score = >20% to 50% unaggregated AAC) | – | –
16 | COC(=O)c1ccccc1SSc1ccccc1C(=O)OC [Compound 21] | + (″+″ score = >20% to 50% unaggregated AAC) | – | –
17 | O=C(O)c1ccc(SSc2ccc(C(=O)O)cc2)cc1 [Compound 1] | ++ (″++″ score = >50% unaggregated AAC) | – | –
18 | CC(C)NS(=O)(=O)c1cccc(C(=O)O)c1 [Compound 24] | + (″+″ score = >20% to 50% unaggregated AAC) | – | ++ (″++″ score = >50% unaggregated AAC)
19 | CN/C(=C\[N+](=O)[O-])NCCSCc1c[nH]c(CN(C)C)n1 [Compound 11] | ++ (″++″ score = >50% unaggregated AAC) | 495 | ++ (″++″ score = >50% unaggregated AAC)
20 | O=C(O)Cc1ccc(S(=O)(=O)N2CCOCC2)s1 [Compound 30] | ++ (″++″ score = >50% unaggregated AAC) | – | –

Row | Compound | Gel [1] | EC50 [1] [µM] | Ex-vivo [2]
21 | Cc1cc(N2CCSSCC2)ncc1[N+](=O)[O-] [Compound 34] | ++ (″++″ score = >50% unaggregated AAC) | – | –
22 | O=C(O)CCC(=O)Nc1ccc(SSc2ccc(NC(=O)CCC(=O)O)cc2)cc1 [Compound 43] | ++ (″++″ score = >50% unaggregated AAC) | – | –
23 | Cc1nn(CCC(=O)N2CCSSCC2)c(C)c1[N+](=O)[O-] [Compound 38] | + (″+″ score = >20% to 50% unaggregated AAC) | – | –
24 | O=C(O)c1ccccc1SSc1ccccc1C(=O)O [Compound 4] | ++ (″++″ score = >50% unaggregated AAC) | 395 | –
25 | CCC1c2ccccc2-c2cc(NC(=O)CSSCC(=O)Nc3ccc4c(c3)c3ccccc3n4CC)ccc21 (centres unmarked) [Compound 54] | ++ (″++″ score = >50% unaggregated AAC) | – | –
26 | COc1ccc(SSc2ccc(OC)cc2)cc1 [Compound 15] | + (″+″ score = >20% to 50% unaggregated AAC) | – | –
27 | O=C(CSSCC(=O)Nc1cccc([N+](=O)[O-])c1)Nc1cccc([N+](=O)[O-])c1 [Compound 40] | + (″+″ score = >20% to 50% unaggregated AAC) | 365 | –
28 | CC(C)Cc1ccccc1NC(=O)CSSCC(=O)Nc1ccccc1CC(C)C [Compound 51] | ++ (″++″ score = >50% unaggregated AAC) | – | –
29 | O=[N+]([O-])c1cc(C(F)(F)F)ccc1SSc1ccc(C(F)(F)F)cc1[N+](=O)[O-] [Compound 14] | + (″+″ score = >20% to 50% unaggregated AAC) | – | –
30 | O=C(O)c1cccc(S(=O)(=O)N2CCCCC2)c1 [Compound 28] | + (″+″ score = >20% to 50% unaggregated AAC) | – | –
31 | O=C(O)c1cccc(S(=O)(=O)N2CCOCC2)c1 [Compound 29] | + (″+″ score = >20% to 50% unaggregated AAC) | – | –
32 | O=C(O)c1nsnc1NCCSSCCNc1nsnc1C(=O)O [Compound 42] | + (″+″ score = >20% to 50% unaggregated AAC) | – | –
33 | Nc1nc(N2CCSSCC2)ncc1[N+](=O)[O-] [Compound 36] | + (″+″ score = >20% to 50% unaggregated AAC) | – | –
34 | O=C(CSSCC(=O)Nc1cccc2ccccc12)Nc1cccc2ccccc12 [Compound 48] | + (″+″ score = >20% to 50% unaggregated AAC) | – | –
35 | Nc1cccc(SSc2cccc(N)c2)c1 [Compound 5] | ++ (″++″ score = >50% unaggregated AAC) | – | –
36 | Fc1ccccc1SSc1ccccc1F [Compound 7] | + (″+″ score = >20% to 50% unaggregated AAC) | – | –
37 | O=C1NC(=O)c2cc(NC(=O)N3CCSSCC3)ccc21 [Compound 37] | ++ (″++″ score = >50% unaggregated AAC) | 370 | –
38 | O=C(CSSCC(=O)Nc1ccc2ccccc2c1)Nc1ccc2ccccc2c1 [Compound 44] | ++ (″++″ score = >50% unaggregated AAC) | – | –
39 | Nc1ccc(SSc2ccc(N)cc2)cc1 [Compound 2] | ++ (″++″ score = >50% unaggregated AAC) | – | –
40 | N#Cc1cc(C(=O)O)c(O)nc1SSc1nc(O)c(C(=O)O)cc1C#N [Compound 50] | + (″+″ score = >20% to 50% unaggregated AAC) | – | –

Source: patent US20250019352A1, “PHARMACOLOGICAL AGENTS FOR TREATING OPHTHALMIC DISEASES” (Plex Pharmaceuticals, Inc., priority 2021, published 2025)
